IC50 data for 25 compounds are collected here from patent US8871767B2, “2-arylimidazo[1,2-B]pyridazine, 2-phenylimidazo[1,2-A]pyridine, and 2-phenylimidazo[1,2-A]pyrazine derivatives” (Hengrui (USA) Ltd., priority 2010, dated 2014).

Where two headings read alike, the source gives them in different places.

The test system of assay [1] is Hedgehog pathway activation on 10T1/2/Smo#3 cells (C3H10T1/2 cells transfected with human Smoothened receptor). Briefly: Hedgehog pathway activation on 10T1/2/Smo#3 cells measured by ALP activity. It counts as cell-based. As to conditions: Mus musculus, C3H 10T1/2, 10T1/2/Smo#3 cells. The essentials:
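Inhibition of alkaline phosphatase induction, read fluorometrically from 4-methylumbelliferyl phosphate conversion, gave IC50 values; CellTiter-Blue tracked viability in parallel. Cells were the human Smo-transfected 10T1/2/Smo#3 pool, stimulated by 10-20% hShh conditioned medium or the Smo agonist SAG (500 nM).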

The subject of assay [2] is Hedgehog pathway activation (GLi-luciferase reporter) in Shh Light II reporter cells. Briefly: Hedgehog pathway activation on Shh Light II reporter cells measured by luciferase activity. The note with it: Mus musculus, Shh Light II. It counts as cell-based. Put shortly:
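Shh Light II reporter cells carrying a hedgehog-responsive GLi-luciferase reporter were stimulated either with 500 nM SAG, a direct Smoothened agonist, or with conditioned media containing human Sonic Hedgehog (hShh). Test compounds were evaluated for blocking this pathway activation, quantified by luciferase activity. Cell viability was monitored in parallel with the Celltiter-Blue® assay.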

[3] abbreviates: hShh activation, ALP activity, read-out: 10T1/2/Smo#3 ALP activity (hShh Activation).
[4] abbreviates: measured by ALP activity, read-out: ALP (IC50, inhibition of Hedgehog pathway activation).
Where [5] appears, read: SAG activation (500 nM SAG), read-out: Shh Light II luciferase activity (SAG activation).
Where [6] appears, read: hShh activation, read-out: Shh (IC50, inhibition of Hedgehog pathway activation).
Setting [7] is: hShh activation, read-out: Shh Light II luciferase activity (hShh activation).

With `CC(=O)NC1CCN(c2ccc3nc(-c4ccc(C)c(NC(=O)C(C)(C)C)c4)c(C)n3n2)C1` (stereo not shown) [Example 363, N-(5-(6-(3-acetamidopyrrolidin-1-yl)-3-methylimidazo[1,2-b]pyridazin-2-yl)-2-methylphenyl)pivalamide], the IC50 is 300 to 3000 nM in assay [1] (setting [3]); 1240 nM in assay [1] (setting [4]); 300 to 3000 nM in assay [2] (setting [5]); 612 nM in assay [2] (setting [6]); 300 to 3000 nM in assay [2] (setting [7]).

For `COc1cccc(-c2ccc3nc(-c4ccc(C(F)(F)F)c(NC(=O)C(C)(C)C)c4)cn3n2)n1` [Example 147, N-(5-(6-(6-methoxypyridin-2-yl)imidazo[1,2-b]pyridazin-2-yl)-2-(trifluoromethyl)phenyl)pivalamide], the IC50 in assay [1] (setting [4]) was above 10000 nM; in assay [2] (setting [6]), 1040 nM.

On to `CCOC(=O)CCCOc1ccc(-c2ccc3nc(-c4ccc(C)c(NC(=O)C(C)(C)C)c4)cn3n2)c(C(F)(F)F)c1` [Example 428, ethyl 4-(4-(2-(4-methyl-3-pivalamidophenyl)imidazo[1,2-b]pyridazin-6-yl)-3-(trifluoromethyl)phenoxy)butanoate], for which the IC50 in assay [1] (setting [4]) worked out at 734 nM; in assay [2] (setting [6]), 78 nM.

`COc1ccc2nc(-c3ccc(C)c(NC(=O)Cc4ccc(Cl)cc4)c3)cn2n1` [Example 101, 2-(4-chlorophenyl)-N-(5-(6-methoxyimidazo[1,2-b]pyridazin-2-yl)-2-methylphenyl)acetamide]: the IC50 was 3000 to 30000 nM in assay [1] (setting [3]); 7010 nM in assay [1] (setting [4]); 3000 to 30000 nM in assay [2] (setting [5]); 890 nM in assay [2] (setting [6]); 300 to 3000 nM in assay [2] (setting [7]).

In the case of `Cc1ccc(-c2cn3nc(-c4cccnc4C)ccc3n2)cc1NC(=O)C(C)(C)C` [Example 278, N-(2-methyl-5-(6-(2-methylpyridin-3-yl)imidazo[1,2-b]pyridazin-2-yl)phenyl)pivalamide], the values for the IC50 in assay [1] (setting [4]) and in assay [2] (setting [6]) were 228 nM and 162 nM, respectively.

As for `COc1ccc2nc(-c3ccc(C)c(NC(=O)C(C)(C)C)c3)c(C)n2n1` [Example 121, N-(5-(6-methoxy-3-methylimidazo[1,2-b]pyridazin-2-yl)-2-methylphenyl)pivalamide], the IC50 in assay [1] (setting [3]) is 300 to 3000 nM; in assay [1] (setting [4]), 1870 nM; in assay [2] (setting [5]), 3000 to 30000 nM; in assay [2] (setting [6]) it was 2000 nM; in assay [2] (setting [7]), 300 to 3000 nM.

Regarding `Cc1ccc(-c2cn3nc(-c4cccnc4C(F)(F)F)ccc3n2)cc1NC(=O)C1(C)CC1` [compound 518, 1-methyl-N-(2-methyl-5-(6-(2-(trifluoromethyl)pyridin-3-yl)imidazo[1,2-b]pyridazin-2-yl)phenyl)cyclopropanecarboxamide], the IC50 in assay [1] (setting [3]) is below 300 nM; in assay [1] (setting [4]), 71 nM; in assay [2] (setting [5]), below 300 nM; in assay [2] (setting [6]), 16 nM; in assay [2] (setting [7]) it was below 300 nM.

In the case of `COc1ccc2nc(-c3ccc(OC(F)(F)F)c(NC(=O)C(C)(C)C)c3)cn2n1` [Example 247, N-(5-(6-methoxyimidazo[1,2-b]pyridazin-2-yl)-2-(trifluoromethoxy)phenyl)pivalamide], the IC50 in assay [1] (setting [3]) was below 300 nM; in assay [1] (setting [4]), 1860 nM; in assay [2] (setting [5]), below 300 nM; in assay [2] (setting [7]) it was below 300 nM.

Regarding `O=C(Nc1cc(-c2cn3nc(-c4cccnc4C(F)(F)F)ccc3n2)ccc1F)N1CCCC1` [Example 686, N-(2-fluoro-5-(6-(2-(trifluoromethyl)pyridin-3-yl)imidazo[1,2-b]pyridazin-2-yl)phenyl)pyrrolidine-1-carboxamide], the IC50 in assay [1] (setting [4]) came out at 218 nM; in assay [2] (setting [6]), 149 nM.

`Cc1ccc(-c2nc3ccc(N4CCC(O)CC4)nn3c2C)cc1NC(=O)C(C)(C)C` [Example 313, N-(5-(6-(4-hydroxypiperidin-1-yl)-3-methylimidazo[1,2-b]pyridazin-2-yl)-2-methylphenyl)pivalamide]: the IC50 in assay [1] (setting [3]) was 300 to 3000 nM; in assay [1] (setting [4]), 636 nM; in assay [2] (setting [5]), 300 to 3000 nM; in assay [2] (setting [6]), 826 nM; in assay [2] (setting [7]), 300 to 3000 nM.

With `Fc1ccc(CN2CCN(c3ccc4nc(-c5ccccc5)c(Cl)n4n3)CC2)cc1` [Example 144, 3-chloro-6-(4-(4-fluorobenzyl)piperazin-1-yl)-2-phenylimidazo[1,2-b]pyridazine], the IC50 in assay [1] (setting [3]) is 3000 to 30000 nM; in assay [1] (setting [4]), 3970 nM; in assay [2] (setting [5]), 3000 to 30000 nM; in assay [2] (setting [6]) it was above 10000 nM; in assay [2] (setting [7]), 3000 to 30000 nM.

As to `CCOc1ccc2nc(-c3ccc(C(F)(F)F)c(Br)c3)cn2n1` [Example 204, 2-(3-bromo-4-(trifluoromethyl)phenyl)-6-ethoxyimidazo[1,2-b]pyridazine], the IC50 in assay [1] (setting [3]) is 3000 to 30000 nM; in assay [1] (setting [4]), 9530 nM; in assay [2] (setting [5]) it was 3000 to 30000 nM; in assay [2] (setting [6]) it was above 10000 nM; in assay [2] (setting [7]) it was 3000 to 30000 nM.

For `CCOc1ccc2nc(-c3ccc(C(F)(F)F)c(NC(=O)C4CCCC4)c3)cn2n1` [Example 189, N-(5-(6-ethoxyimidazo[1,2-b]pyridazin-2-yl)-2-(trifluoromethyl)phenyl)cyclopentanecarboxamide], the IC50 came out at 2100 nM in assay [1] (setting [4]) and 2000 nM in assay [2] (setting [6]).

Regarding `Cc1ccc(-c2cn3nc(-c4cccnc4C(F)(F)F)ccc3n2)cc1NC(=O)NC(C)(C)C` [Example 646, 1-tert-butyl-3-(2-methyl-5-(6-(2-(trifluoromethyl)pyridin-3-yl)imidazo[1,2-b]pyridazin-2-yl)phenyl)urea], the IC50 in assay [1] (setting [3]) was below 300 nM; in assay [1] (setting [4]) it was 16 nM; in assay [2] (setting [5]), 300 to 3000 nM; in assay [2] (setting [6]), 38 nM; in assay [2] (setting [7]), below 300 nM.

As for `CC(C)(C)C(=O)Nc1cc(-c2cn3nc(-c4ccc(Cl)cc4)ccc3n2)ccc1C(F)(F)F` [Example 238, N-(5-(6-(4-chlorophenyl)imidazo[1,2-b]pyridazin-2-yl)-2-(trifluoromethyl)phenyl)pivalamide], the IC50 in assay [1] (setting [4]) was determined as 230 nM; in assay [2] (setting [6]), 625 nM.

For the compound `O=C(Nc1cc(-c2cn3nc(-c4cccnc4C(F)(F)F)ccc3n2)ccc1F)C1CC1` [Example 681, N-(2-fluoro-5-(6-(2-(trifluoromethyl)pyridin-3-yl)imidazo[1,2-b]pyridazin-2-yl)phenyl)cyclopropanecarboxamide], the IC50 in assay [1] (setting [4]) is 6560 nM; in assay [2] (setting [6]) it was 976 nM.

For `CC(C)(C)C(=O)Nc1cc(-c2cn3nc(N4CCC(F)(F)CC4)ccc3n2)ccc1C(F)(F)F` [Example 235, N-(5-(6-(4,4-difluoropiperidin-1-yl)imidazo[1,2-b]pyridazin-2-yl)-2-(trifluoromethyl)phenyl)pivalamide], the IC50 was below 300 nM in assay [1] (setting [3]); 271 nM in assay [1] (setting [4]); 300 to 3000 nM in assay [2] (setting [5]); 318 nM in assay [2] (setting [6]); below 300 nM in assay [2] (setting [7]).

As for `Cc1c(-c2ccccc2)nc2ccc(N3CCN(C(=O)CC(C)(C)C)CC3)nn12` [Example 157, 3,3-dimethyl-1-(4-(3-methyl-2-phenylimidazo[1,2-b]pyridazin-6-yl)piperazin-1-yl)butan-1-one], the IC50 was above 10000 nM in assay [1] (setting [4]) and 1950 nM in assay [2] (setting [6]).

On to `Cc1ccc(-c2cn3nc(-c4ccc(NC(=O)CCCCC(=O)NO)cc4C(F)(F)F)ccc3n2)cc1NC(=O)C(C)(C)C` [compound 531], for which the figures for the IC50 in assay [1] (setting [4]) and in assay [2] (setting [6]) were 1140 nM and 586 nM, respectively.

As to `Cc1c(-c2ccccc2)nc2ccc(N3CCN(Cc4ccncc4)CC3)nn12` [Example 162, 3-methyl-2-phenyl-6-(4-(pyridin-4-ylmethyl)piperazin-1-yl)imidazo[1,2-b]pyridazine], the IC50 was 1110 nM in assay [1] (setting [4]) and 1400 nM in assay [2] (setting [6]).

`CC(C)(C)C(=O)Nc1cc(-c2cn3nc(OCCN4CCCCC4)ccc3n2)ccc1C(F)(F)F` [Example 309, N-(5-(6-(2-(piperidin-1-yl)ethoxy)imidazo[1,2-b]pyridazin-2-yl)-2-(trifluoromethyl)phenyl)pivalamide]: the results for the IC50 in assay [1] (setting [4]) and in assay [2] (setting [6]) were 973 nM and 339 nM, respectively.

For the compound `CC(C)(C)C(=O)Nc1cc(-c2cn3nc(-c4ccccc4C(F)(F)F)ccc3n2)ccc1C(F)(F)F` [Example 209, N-(2-(trifluoromethyl)-5-(6-(2-(trifluoromethyl)phenyl)imidazo[1,2-b]pyridazin-2-yl)phenyl)pivalamide], the IC50 in assay [1] (setting [4]) came to 97 nM; in assay [2] (setting [6]), 72 nM.

As to `CCC(C)(C)C(=O)Nc1cc(-c2cn3nc(-c4cccnc4C(F)(F)F)ccc3n2)ccc1Cl` [Example 664, N-(2-chloro-5-(6-(2-(trifluoromethyl)pyridin-3-yl)imidazo[1,2-b]pyridazin-2-yl)phenyl)-2,2-dimethylbutanamide], the IC50 in assay [1] (setting [4]) amounted to 105 nM; in assay [2] (setting [6]), 24 nM.

Take `Cc1c(-c2ccccc2)nc2ccc(N3CCN(C(=O)NC4CCCCC4)CC3)nn12` [Example 159, N-cyclohexyl-4-(3-methyl-2-phenylimidazo[1,2-b]pyridazin-6-yl)piperazine-1-carboxamide]: the results for the IC50 in assay [1] (setting [4]) and in assay [2] (setting [6]) were 435 nM and 440 nM, respectively.

As to `CC(C)(C)C(=O)Nc1cc(-c2cn3nc(NC4CCCC4)ccc3n2)ccc1C(F)(F)F` [Example 301, N-(5-(6-(cyclopentylamino)imidazo[1,2-b]pyridazin-2-yl)-2-(trifluoromethyl)phenyl)pivalamide], the IC50 in assay [1] (setting [4]) turned out to be 1060 nM; in assay [2] (setting [6]), 406 nM.
